A word on the AC50: it is the midpoint of the concentration-response curve, whichever way the signal moves. In general, EC50 refers to the concentration that produces a half-maximal response. Usually GI50 stands for the concentration at which growth is held to half of that of the control.

The source of these data is ChEMBL document CHEMBL1201862, “PubChem BioAssay data set” (2004).

One assay deals with Genome polyprotein (dengue virus type 2, UniProt P29990). Put plainly: flavivirus cap methylation enzyme inhibition – biochemical, confirmation dose response, primary screen (AID 588689). The class given is functional.
Sequence of Genome polyprotein (P29990 2492-3391 limits assumed): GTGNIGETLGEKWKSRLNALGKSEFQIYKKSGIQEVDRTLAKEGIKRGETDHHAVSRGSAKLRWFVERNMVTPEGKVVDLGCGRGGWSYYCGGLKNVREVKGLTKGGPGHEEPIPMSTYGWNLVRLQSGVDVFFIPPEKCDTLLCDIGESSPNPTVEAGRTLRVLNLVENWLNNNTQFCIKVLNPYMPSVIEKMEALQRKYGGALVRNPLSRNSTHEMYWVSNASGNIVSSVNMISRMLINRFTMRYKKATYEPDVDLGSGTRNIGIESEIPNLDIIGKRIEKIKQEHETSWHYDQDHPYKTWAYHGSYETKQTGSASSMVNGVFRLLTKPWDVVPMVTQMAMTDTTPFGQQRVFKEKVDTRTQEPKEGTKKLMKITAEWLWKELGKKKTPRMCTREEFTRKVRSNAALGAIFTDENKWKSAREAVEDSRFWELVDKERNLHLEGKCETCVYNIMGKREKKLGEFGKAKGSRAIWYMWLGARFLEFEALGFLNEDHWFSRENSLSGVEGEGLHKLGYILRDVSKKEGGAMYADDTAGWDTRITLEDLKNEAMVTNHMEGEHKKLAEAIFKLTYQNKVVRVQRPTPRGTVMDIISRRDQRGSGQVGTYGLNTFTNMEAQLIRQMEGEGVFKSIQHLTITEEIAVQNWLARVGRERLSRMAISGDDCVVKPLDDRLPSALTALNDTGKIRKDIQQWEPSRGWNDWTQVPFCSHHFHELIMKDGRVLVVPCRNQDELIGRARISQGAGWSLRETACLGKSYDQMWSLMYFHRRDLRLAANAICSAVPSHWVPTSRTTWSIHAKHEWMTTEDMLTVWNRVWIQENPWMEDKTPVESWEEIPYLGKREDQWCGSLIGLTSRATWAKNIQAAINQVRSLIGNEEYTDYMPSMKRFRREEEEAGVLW
Assay [1] has as its target T1, Polyadenylate-binding protein 1 (Homo sapiens, UniProt P11940). Put plainly: MLLE domain peptide-binding blockers, IC50 – biochemical, fluorescence polarization, FITC-PAM2 peptide, dose response (AID 602259). The class given is functional. The following applies: read-out: IC50_Mean.
Assay [2] has as its target T1, Polyadenylate-binding protein 1. Put plainly: MLLE binding blockers, Cy5 peptide tracer – biochemical, fluorescence polarization, Cy5-PAM2 peptide, secondary, miRNA deadenylation inhibitor project, dose response (AID 602260). The class given is functional. Particulars: read-out: IC50_Mean. On the technique in general: Fluorescence polarisation rises when a labelled molecule tumbles more slowly, as on binding a larger partner.

Assay [3] has as its target FAD-linked sulfhydryl oxidase ALR (Homo sapiens, UniProt P55789). Put plainly: ALR-catalysed DTT oxidation blockers – biochemical, H2O2 detection, luminescence, cherry-pick, dose response (AID 493248).
Assay [4] in a line: NIH3T3 cell viability loss – ATP luminescence, mouse fibroblasts, counter-screen, dose response (AID 2010).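 Note: cells exposed to compound for about 90 hours before reading.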 Format: functional, cell-based. In general terms: The purpose of a counterscreen is to sort out artefacts and off-target activity.
Assay [5] is described as follows: Trypanosoma cruzi growth suppression in host cells – NIH3T3 host cells, beta-gal luminescence, confirmation (AID 2044).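 Note: intracellular parasites grown in NIH/3T3 mouse fibroblasts as host cells; luminescent beta-galactosidase reporter signal from transgenic T. cruzi replicating inside host cells; inhibitors lower the luminescence signal.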 Format: functional, cell-based.
The target in assay [6] is T2, Replicative DNA helicase DnaB (Mycobacterium tuberculosis, UniProt P9WMR3).
T2 sequence (P9WMR3 whole entry): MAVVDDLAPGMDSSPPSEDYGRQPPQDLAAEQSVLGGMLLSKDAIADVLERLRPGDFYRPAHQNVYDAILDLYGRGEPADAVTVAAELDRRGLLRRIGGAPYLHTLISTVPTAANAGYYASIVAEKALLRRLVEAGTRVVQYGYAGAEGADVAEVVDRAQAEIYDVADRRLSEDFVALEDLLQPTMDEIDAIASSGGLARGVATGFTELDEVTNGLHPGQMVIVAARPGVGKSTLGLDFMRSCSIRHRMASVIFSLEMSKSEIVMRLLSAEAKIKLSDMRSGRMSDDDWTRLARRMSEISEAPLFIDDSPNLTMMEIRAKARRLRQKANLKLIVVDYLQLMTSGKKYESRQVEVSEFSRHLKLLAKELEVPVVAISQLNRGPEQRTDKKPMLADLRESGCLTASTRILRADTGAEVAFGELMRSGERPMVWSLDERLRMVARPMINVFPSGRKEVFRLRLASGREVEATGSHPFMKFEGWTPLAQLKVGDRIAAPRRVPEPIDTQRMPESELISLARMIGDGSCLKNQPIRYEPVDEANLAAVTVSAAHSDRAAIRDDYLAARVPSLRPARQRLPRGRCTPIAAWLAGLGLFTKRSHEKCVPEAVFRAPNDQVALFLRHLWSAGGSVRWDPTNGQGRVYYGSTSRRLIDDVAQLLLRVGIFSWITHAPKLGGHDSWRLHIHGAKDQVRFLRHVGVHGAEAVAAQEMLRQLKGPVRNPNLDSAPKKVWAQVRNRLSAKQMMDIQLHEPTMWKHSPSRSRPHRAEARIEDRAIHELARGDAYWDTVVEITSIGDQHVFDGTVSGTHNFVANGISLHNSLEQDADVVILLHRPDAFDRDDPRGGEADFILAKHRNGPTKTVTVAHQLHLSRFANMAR
Put plainly: DnaB intein splicing inhibitors, dose response, biochemical, cell-free fluorescence (AID 449749). The class given is functional.

A further assay addresses T3, Protein RecA (Mycobacterium tuberculosis, UniProt P9WHJ3).
T3 sequence (P9WHJ3 whole entry): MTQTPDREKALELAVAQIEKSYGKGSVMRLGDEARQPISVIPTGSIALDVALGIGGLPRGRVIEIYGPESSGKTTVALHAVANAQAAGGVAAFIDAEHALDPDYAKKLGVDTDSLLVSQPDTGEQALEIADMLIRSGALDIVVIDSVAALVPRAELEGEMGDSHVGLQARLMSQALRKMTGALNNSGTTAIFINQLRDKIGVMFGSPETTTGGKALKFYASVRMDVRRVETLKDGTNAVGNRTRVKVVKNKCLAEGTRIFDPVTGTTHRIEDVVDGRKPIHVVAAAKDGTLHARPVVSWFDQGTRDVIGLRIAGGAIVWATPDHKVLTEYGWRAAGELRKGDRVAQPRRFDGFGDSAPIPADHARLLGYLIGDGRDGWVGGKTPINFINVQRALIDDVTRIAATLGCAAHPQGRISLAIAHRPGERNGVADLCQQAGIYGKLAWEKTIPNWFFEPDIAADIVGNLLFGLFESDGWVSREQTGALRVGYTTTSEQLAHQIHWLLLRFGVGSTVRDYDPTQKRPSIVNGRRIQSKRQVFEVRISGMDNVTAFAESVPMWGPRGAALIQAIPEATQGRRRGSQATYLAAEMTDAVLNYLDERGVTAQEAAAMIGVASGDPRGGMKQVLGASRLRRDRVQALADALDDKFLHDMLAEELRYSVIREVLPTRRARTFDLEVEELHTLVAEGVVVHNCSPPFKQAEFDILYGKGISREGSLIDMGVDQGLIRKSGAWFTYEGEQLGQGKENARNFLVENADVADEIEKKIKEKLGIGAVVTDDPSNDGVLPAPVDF
Put plainly: Fluorescence Cell-Free Homogeneous Dose Retest to Identify Inhibitors of RecA-Intein Splicing Activity. [Related pubchem assays (depositor defined):AID2097, AID2223, AID489010, AID492950]. The class given is functional.

In a further assay the test system is P388. Put plainly: cells. The following applies: Mus musculus. Format: functional.
For the next assay, the system named is SN12K1. Put plainly: cells. Format: functional. The following applies: Homo sapiens.
Another assay has as its system P388/ADR. Put plainly: cells. The class given is functional. Particulars: Mus musculus.
For assay [7], the target named is T4, Rac GTPase-activating protein 1 (Homo sapiens, UniProt Q9H0H5).
T4 sequence (Q9H0H5 whole entry): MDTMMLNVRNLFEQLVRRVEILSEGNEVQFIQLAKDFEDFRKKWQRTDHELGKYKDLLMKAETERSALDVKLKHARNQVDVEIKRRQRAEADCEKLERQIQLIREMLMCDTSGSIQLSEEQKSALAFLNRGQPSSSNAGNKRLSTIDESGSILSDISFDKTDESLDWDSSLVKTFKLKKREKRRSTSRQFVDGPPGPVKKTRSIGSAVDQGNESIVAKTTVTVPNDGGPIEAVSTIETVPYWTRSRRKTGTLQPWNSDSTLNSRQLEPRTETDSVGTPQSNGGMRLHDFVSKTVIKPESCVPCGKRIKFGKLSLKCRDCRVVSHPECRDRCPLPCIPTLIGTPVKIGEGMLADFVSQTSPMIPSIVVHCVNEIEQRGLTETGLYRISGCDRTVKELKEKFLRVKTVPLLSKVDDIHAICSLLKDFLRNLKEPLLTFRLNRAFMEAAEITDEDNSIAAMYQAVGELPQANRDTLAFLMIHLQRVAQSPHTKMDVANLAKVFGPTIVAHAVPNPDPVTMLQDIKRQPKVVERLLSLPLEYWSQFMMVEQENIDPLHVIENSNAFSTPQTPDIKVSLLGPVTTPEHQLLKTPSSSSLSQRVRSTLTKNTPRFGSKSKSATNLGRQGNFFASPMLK
Put plainly: blockers of MgcRacGAP-driven Rac1 GTP hydrolysis – biochemical, ADP Hunter fluorescence, primary and confirmatory, confirmation (AID 624330). The class given is functional.

Structures are written as SMILES. Active and inactive are the calls of the source.

T1 sequence (P11940 whole entry, the tested form may be a part): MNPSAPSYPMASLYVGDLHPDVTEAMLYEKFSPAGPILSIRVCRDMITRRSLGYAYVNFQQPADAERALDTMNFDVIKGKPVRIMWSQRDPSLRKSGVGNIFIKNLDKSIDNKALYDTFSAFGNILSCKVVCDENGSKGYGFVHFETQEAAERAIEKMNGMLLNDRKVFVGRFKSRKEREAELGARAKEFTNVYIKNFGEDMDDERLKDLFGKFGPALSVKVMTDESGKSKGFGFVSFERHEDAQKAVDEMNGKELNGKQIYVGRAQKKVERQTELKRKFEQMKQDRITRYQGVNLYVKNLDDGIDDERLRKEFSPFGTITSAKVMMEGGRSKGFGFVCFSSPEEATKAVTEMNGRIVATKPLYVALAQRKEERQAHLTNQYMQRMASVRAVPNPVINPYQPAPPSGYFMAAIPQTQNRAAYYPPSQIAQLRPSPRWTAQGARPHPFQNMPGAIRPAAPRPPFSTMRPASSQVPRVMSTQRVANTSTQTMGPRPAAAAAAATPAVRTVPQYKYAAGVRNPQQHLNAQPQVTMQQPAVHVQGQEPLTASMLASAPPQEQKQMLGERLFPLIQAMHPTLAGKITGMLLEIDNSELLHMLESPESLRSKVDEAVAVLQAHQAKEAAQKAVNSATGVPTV
Sequence of FAD-linked sulfhydryl oxidase ALR (P55789 whole entry): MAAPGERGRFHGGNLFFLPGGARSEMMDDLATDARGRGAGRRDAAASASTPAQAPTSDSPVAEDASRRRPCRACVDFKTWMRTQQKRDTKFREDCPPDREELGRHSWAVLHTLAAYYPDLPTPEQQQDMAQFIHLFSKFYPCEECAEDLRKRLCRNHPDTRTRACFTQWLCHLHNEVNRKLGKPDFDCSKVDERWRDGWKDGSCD

For `O=C(O)c1ccccc1-c1ccccc1C(=O)Nc1ccc2c(c1)C(=O)c1ccccc1-2`, the IC50 on Genome polyprotein was 58.9 µM (active).
For `COc1ccccc1-n1c(N)c(C(N)=O)sc1=S`, the IC50 in assay [1] and in [2] was > 66 µM (inactive) each time.
Consider `C[C@H](NS(=O)(=O)c1ccc2c(c1)OCCCO2)C(=O)N1CCN(c2ccc(F)cc2)CC1`, for which the IC50 in [1] and in assay [2] was > 66 µM (inactive) in each case.
Take `CCN(CC)S(=O)(=O)c1ccc(N2CCOCC2)c(NC(=O)CCC2CCCCC2)c1`: the IC50 in [1] and in assay [2] was > 66 µM (inactive) throughout.
`Cc1cc([N+](=O)[O-])ccc1N1C(=O)c2ccc(C(=O)Nc3ccccc3C(=O)O)cc2C1=O`: the AC50 in assay [3] is 57 µM (active). In addition, at Genome polyprotein, the IC50 was 67.9 µM (active).
Take `COc1ccccc1NS(=O)(=O)c1cc(NC(=O)Nc2cccc(C)c2)ccc1N1CCCCC1`: the concentration for a half-maximal effect (EC50) was > 60 µM (not active) in assay [4] and 2.16 µM (active) in assay [5]. Also, the IC50 in [1] and in assay [2] was > 66 µM (inactive) throughout.
With `CC(=O)Nc1ccc(Nc2ccc3c4c(cc(=O)n3C)-c3ccccc3C(=O)c24)cc1`, the IC50 is 59.4 µM (inactive) in assay [1] and > 66 µM (inactive) in assay [2].
Turning to `CC(=O)Oc1ccc(/C=C2/C(=O)N(c3ccccc3)N=C2C)cc1`, in assay [6], the AC50 was 2.76 µM (active). For the same compound, on Protein RecA, the EC50 is 2.72 µM (active). For the same compound, the IC50 at Genome polyprotein is 56 µM (active).
Turning to `C[C@@H]1CCC2[C@](C)(CO)[C@@H](O)CC[C@]2(C)[C@@]12CC[C@@](CO)(CC(=O)O)O2` (stereo partly drawn), the IC50 in [1] and in [2] was > 66 µM (inactive) in each case.
As to `C=CCn1c2ccccc2c2c(C)c3cnccc3c(C)c21`, the GI50 is 3.34 µM (inactive) in the assay on P388, 8.41 µM (inactive) in the assay with SN12K1 and 11.2 µM (inactive) in the assay with P388/ADR.
The corresponding values for `COc1cc(/C=C(/C#N)C(N)=O)ccc1O` are > 100 µM (inactive), > 100 µM (inactive) and > 100 µM (inactive).
Consider `C=CC12CN(C)C3C4COC(CC41)C1(C(=O)Nc4ccccc41)C32` (stereo not drawn), for which the GI50 is 63.1 µM (inactive) with P388, 185 µM (inactive) in the assay with SN12K1 and 136 µM (inactive) in the assay on P388/ADR.
The corresponding values for `CC1CCC2(C(=O)O)CCC3(C)C(=CCC4C5(C)CCC(O)C(C)(C)C5CCC43C)C2C1C` (stereo not drawn) are 2.27 µM (inactive), 4.12 µM (inactive) and 2.1 µM (inactive).
Regarding `c1cc(-c2ccoc2)n2ccnc2c1`, the IC50 in [1] and in [2] was > 66 µM (inactive) each time.
On to `N/C(=N\O)N/N=C\c1c(O)cc(O)cc1O`, for which the GI50 in the assay with P388 was > 44.4 µM (inactive); in the assay with SN12K1, 15.7 µM (inactive); in the assay on P388/ADR, 17.5 µM (inactive).
`CC1=C2C(O)C(C(C)C(=O)NCC(C)C)CCC2(C)C=CC1=O` (stereo not drawn): the GI50 in the assay with P388, in the assay on SN12K1 and in the assay with P388/ADR was > 100 µM (inactive) each time.
With `Cc1[nH]c(=O)[nH]c(=O)c1/C=C/C(=O)NC(CO)C[S+]([O-])Cc1ccccc1` (stereo not drawn), the GI50 in the assay on P388 is > 179 µM (inactive); in the assay on SN12K1, > 300 µM (inactive); in the assay on P388/ADR it was > 300 µM (inactive).
As to `O=C1c2ccccc2OCC1/C=N/O` (stereo not drawn), the GI50 with P388 is 18.9 µM (inactive); with SN12K1, 40.5 µM (inactive).
In the case of `COc1cc(-c2ccc(/N=N/c3ccc4c(S(=O)(=O)O)cc(S(=O)(=O)O)c(N)c4c3O)c(OC)c2)ccc1/N=N/c1ccc2c(S(=O)(=O)O)cc(S(=O)(=O)O)c(N)c2c1O`, the GI50 in the assay with P388, in the assay on SN12K1 and in the assay with P388/ADR was > 100 µM (inactive) each time.
With `CC1[C@@H]2CC=C3[C@H]4CCC5Cc6nc7c(nc6C[C@@]5(C)C4CC(=O)[C@]32CO[C@]12OC(C)(C)CC2O)CC1CC[C@@H]2C3=C[C@H]4O[C@@]5(O[C@@](C)(CO)C[C@@H]5O)C(C)[C@@]4(O)[C@]3(C)[C@@H](O)CC2[C@]1(C)C7` (stereo partly drawn), the GI50 is 0.000365 µM (active) in the assay on P388, 0.000365 µM (active) in the assay with SN12K1 and 0.00152 µM (active) with P388/ADR.
For `COc1cc(/C=N/NC(=O)CCNC(=O)c2ccccc2Cl)ccc1O`, the IC50 in assay [7] was 29 µM (active). Also, the AC50 in assay [3] was 3.1 µM (active).
